Laboratory results from ChEMBL document CHEMBL1138331, “Potent antimalarial activity of 2-aminopyridinium salts, amidines, and guanidines” (J Med Chem, 2007).

Legend:
Plasmodium falciparum = assay: microbe, parasite or virus in culture; details: Nigerian, 48 h
Description: Antimalarial activity against Plasmodium falciparum Nigerian in human erythrocytes after 48 hrs

Description for physchem: Dissociation constant, pKa by potentiometric titration

| SMILES | pKa (physchem) | IC50 (Plasmodium falciparum) [nM] |
| --- | --- | --- |
| N=c1n(CCCCCCCCCCCCn2c(=N)n(Cc3ccccc3)c3ccccc32)c2ccccc2n1Cc1ccccc1 | 9.4 | 450 |
| CCN(CC)CCCCCCCCCCCCN(CC)CC | – | 540 |
| CCN(CC)CCCCCCCCCCCCCCCCN(CC)CC | – | 110 |
| C(CCCCCCCCN1CCCC1)CCCCCCCN1CCCC1 | – | 110 |
| CCCCCCCCCCCC[n+]1ccc(C)cc1N | – | 1550 |
| Nc1ccc(-c2ccccc2)c[n+]1CCCc1ccc(CCC[n+]2cc(-c3ccccc3)ccc2N)cc1 | 12.8 | 13 |
| Cc1ccc[n+](CCCCCCCCCCCC[n+]2cccc(C)c2N)c1N | 13.3 | 1.8 |
| N=c1sc2ccccc2n1CCCCCCCCCCCCn1c(=N)sc2ccccc21 | – | 4000 |
| Cc1cc[n+](CCCCCCCCCCCCCCCC[n+]2ccc(C)cc2N)c(N)c1 | 13.6 | 3.8 |
| Cn1c(=N)n(CCCCCCCCCCCCn2c(=N)n(C)c3ccccc32)c2ccccc21 | 11.9 | 65 |
| c1c[nH]c(CCCCCCCCCCCCc2ncc[nH]2)n1 | 9.8 | 1650 |
| c1ccc2[nH]c(CCCCCCCCCCCCc3nc4ccccc4[nH]3)nc2c1 | 9 | 1800 |
| c1cn(CCCCCCCCCCCCn2ccnc2)cn1 | – | 2000 |
| CC(=N)NCCCCCCCCCCCCNC(C)=N | 12.6 | 2 |
| CC1(C)CN=C(CCCCCCCCCCCCC2=NCC(C)(C)N2)N1 | – | 1 |
| C(CCCCCCC1=NC2CCCCC2N1)CCCCCC1=NC2CCCCC2N1 (stereo unspecified) | – | 3 |

| SMILES | pKa (physchem) | IC50 (Plasmodium falciparum) [nM] |
| --- | --- | --- |
| C(CCCCCCN/C(=N\C1CCCCC1)NC1CCCCC1)CCCCCN/C(=N\C1CCCCC1)NC1CCCCC1 | – | 21 |
| CN1CCN=C1CCCCCCCCCCCCC1=NCCN1C | 11 | 43 |
| N=C(CCCCCCCCCCCCC(=N)N1CCCC1)N1CCCC1 | 13.2 | 0.8 |
| Nc1cc(-c2ccccc2)cc[n+]1CCCc1ccc(CCC[n+]2ccc(-c3ccccc3)cc2N)cc1 | 12.6 | 4.5 |
| CCN(CC)CCOCCCCCCCCCCCCOCCN(CC)CC | – | 120 |
| Cc1cc[n+](CCCc2ccc(CCC[n+]3ccc(C)cc3N)cc2)c(N)c1 | 12.6 | 2.9 |
| C(CCCCCCC1=NCCN1)CCCCCC1=NCCN1 | 13 | 2 |
| Cc1nccn1CCCCCCCCCCCCn1ccnc1C | – | 270 |
| C(CCCCCCNC1=NCCCN1)CCCCCNC1=NCCCN1 | – | 0.5 |
| N=c1sccn1CCCCCCCCCCCCn1ccsc1=N | 10.1 | 800 |
| CC1(C)CN=C(NCCCCCCCCCCCCNC2=NCCCN2)NC1 | – | 0.6 |
| CN(C)/C(=N\C#N)NCCCCCCCCCCCCN/C(=N\C#N)N(C)C | – | 8500 |
| Cc1ccc(-c2nn(CCCCCCCCCCCCn3nc(-c4ccc(C)cc4)sc3=N)c(=N)s2)cc1 | 8.1 | 5600 |
| C(CCCCCCNC1=NCCN1)CCCCCNC1=NCCN1 | 13.5 | 1.7 |
| CN(C)C(=N)NCCCCCCCCCCCCNC(=N)N(C)C | 14.1 | 1.6 |

Continued by falling IC50 (Plasmodium falciparum), values first:

| pKa (physchem) | IC50 (Plasmodium falciparum) [nM] | SMILES |
| --- | --- | --- |
| 7.6 | 52000 | CCOC(=N)CCCCCCCCCCCCC(=N)OCC |
| 7.7 | 18500 | N=c1sc(-c2cccc(Cl)c2)nn1CCCCCCCCCCCCn1nc(-c2cccc(Cl)c2)sc1=N |
| 7.8 | 8150 | N=c1sc(-c2cccs2)nn1CCCCCCCCCCCCn1nc(-c2cccs2)sc1=N |
| – | 5400 | FC(F)(F)c1ccc(OCC2CCCN2CCCCCCCCCCCCCCCCN2CCCC2COc2ccc(C(F)(F)F)cc2)cc1 (stereo unspecified) |
| 8 | 760 | N=c1sc(-c2ccccc2)nn1CCCCCCCCCCCCn1nc(-c2ccccc2)sc1=N |
| 11.1 | 260 | N=c1c2ccccc2ccn1CCCCCCCCCCCCn1ccc2ccccc2c1=N |
| – | 160 | OCC1CCCN1CCCCCCCCCCCCCCCCN1CCCC1CO (stereo unspecified) |
| 11.7 | 145 | N=c1ncccn1CCCCCCCCCCCCn1cccnc1=N |
| 13.2 | 100 | N=C(N)CCCCCCCCCCCCCCCCC(=N)N |
| 11.7 | 50 | N=c1cc2ccc3ccccc3c2nn1CCCCCCCCCCCCn1nc2c(ccc3ccccc32)cc1=N |
| – | 29 | C[N+]1(CCCCCCCCCCCCCCCC[N+]2(C)CCCC2COc2ccc(C(F)(F)F)cc2)CCCC1COc1ccc(C(F)(F)F)cc1 (stereo unspecified) |
| 11.3 | 12.3 | N=c1ncc(-c2ccccc2)cn1CCCCCCCCCCCCn1cc(-c2ccccc2)cnc1=N |
| – | 7.2 | Cc1cc[n+](CCCCCCCC[n+]2ccc(C)cc2N)c(N)c1 |
| 12.8 | 6.3 | CN(C)C(=N)CCCCCCCCCCCCC(=N)N(C)C |
| 12.6 | 4.9 | N=C(CCCCCCCCCCCCC(=N)N1CCCCC1)N1CCCCC1 |
| – | 4 | N=C1CCCN1CCCCCCCCCCCCN1CCCC1=N |
| 12.1 | 3.8 | C(CCCCCCNC1=NCCC1)CCCCCNC1=NCCC1 |
| – | 3.3 | CC[N+](CC)(CC)CCOCCCCCCCCCCCCOCC[N+](CC)(CC)CC |
| 12.7 | 3 | C(CCCCCCNC1=NCCCC1)CCCCCNC1=NCCCC1 |
| 13.1 | 2.3 | C(CCCCCCC1=NCCCN1)CCCCCC1=NCCCN1 |
| 13.5 | 2.3 | Nc1cccc[n+]1CCCCCCCCCCCC[n+]1ccccc1N |
| – | 2.2 | C(CCCCCCNC1=NCCCCC1)CCCCCNC1=NCCCCC1 |
| – | 1.5 | C[N+]1(CCCCCCCCCCCCCCCC[N+]2(C)CCCC2CO)CCCC1CO (stereo unspecified) |
| 12.8 | 1.4 | Nc1ccc(Cl)c[n+]1CCCCCCCCCCCC[n+]1cc(Cl)ccc1N |
| – | 1 | CC1CN=C(CCCCCCCCCCCCC2=NCC(C)N2)N1 (stereo unspecified) |
| 13.5 | 0.5 | Cc1cc[n+](CCCCCCCCCCCC[n+]2ccc(C)cc2N)c(N)c1 |
| 13 | 0.5 | Cc1ccc(N)[n+](CCCCCCCCCCCC[n+]2cc(C)ccc2N)c1 |
| – | 0.35 | N=C(N)NCCCCCCCCCCCCNC(=N)N |
| 13.6 | 0.3 | N=C(N)CCCCCCCCCCCCC(=N)N |
